A word on the IC50: it is the concentration needed to halve the response being measured. A word on the inhibition: it is how much of the control response was suppressed.

These results are taken from article PMC5923396 (Marine Drugs, 2018).

For one series, the system named is homopentameric α1 GlyR. Also on record: method as in PMID 24686559. The following applies: cited from earlier work.
In the next series the target is T1, rat α4β2 nAChR (Rattus norvegicus, UniProt P09483+P12390).
T1 construct: expressed in transfected cells; host or cells: Xenopus oocytes injected with plasmid DNA (pcDNA 3.1 vector)
The experiment in a line: Two-electrode voltage clamp, ACh-evoked currents in Xenopus oocytes. Type of series: cell-based. For orientation: Two-electrode voltage clamp holds a large cell at a set potential and records current.

The subject of another series is different types of cells. Also on record: method as in doi:10.1016/S0040-4020(01)96256-8. The following applies: cited from earlier work.
The next series has as its system human α7 nAChR. Also on record: method as in PMID 24686559. To be noted: cited from earlier work.
For another series, the target named is topoisomerase I. The arrangement: method as in doi:10.1016/S0040-4020(01)96256-8. To be noted: read-out: IC50 topoisomerase I inhibiting; cited from earlier work.
In series [1] the target is T2, Torpedo californica muscle-type nAChR (Tetronarce californica, UniProt P02710+P02714+P02718).
T2 construct: from tissue; host or cells: Torpedo californica electric organ membranes
The experiment in a line: Intrinsic tryptophan fluorescence quenching. The following applies: 2 μM MG; λex 280 nm, λem 340 nm; prevented by α-Bgt pre-incubation. The class given is binding. As to the method:
Intrinsic tryptophane fluorescence detection. Electric organ membranes of Torpedo californica at the final concentration of 1 nM of toxin-binding sites in a 20 mM Tris-HCl buffer were mixed with Makaluvamine G (final concentration 2 μM) and the control membranes were pre-incubated with 1 μM αBgt for 30 min. Measurements were done on a Cary Eclipse (Agilent, Santa Clara, CA, USA) spectrofluorimeter with a standard kinetics software (version 1.2) with excitation wavelength 280 nm and emission wavelength 340 nm (both with 5 nm slits). The data were exported to csv files and analyzed in the LibreOffice 6.0 Calc software (The Document Foundation, Berlin, Germany).

For series [2], the target named is T3, α1β3γ2 GABAAR (Mus musculus, UniProt P62812+P63080). The experiment in a line: Two-electrode voltage clamp, GABA-evoked currents in Xenopus oocytes. Type of series: cell-based, murine. To be noted: 25 μM MG; surmountable by higher GABA concentrations.
The target in series [3] is T4, wild-type (WT) muscle nAChR (Mus musculus, UniProt P02716+P04756+P20782).
T4 construct: expressed in transfected cells; host or cells: mouse neuroblastoma Neuro2a cells, transient co-transfection with the Case12 calcium sensor
Put plainly: Fluorescent detection of cytoplasmic Ca2+ rise in transfected Neuro2a cells (Case12). Type of series: cell-based. To be noted: 2.5 μM MG, Ca2+ fluorescence.

Series [4] concerns mice. Put plainly: In vivo toxicity in mice (literature). To be noted: corresponds to 210 mg/kg.
The test system of series [5] is mice. Also on record: method as in doi:10.1016/S0040-4020(01)96256-8. The following applies: cited from earlier work.
For series [6], the target named is T3, α1β3γ2 GABAAR. The experiment in a line: Fluorescent α-Ctx competition assay on Neuro2a cells. Type of series: binding, murine. Also on record: expressed in transfected cells; host or cells: mouse neuroblastoma Neuro2a cells, transient transfection. To be noted: 50 μM MG.
Another series has as its target T5, murine muscle nAChR (Mus musculus, UniProt P02716+P04756+P20782).
T5 construct: expressed in transfected cells; host or cells: Xenopus oocytes injected with plasmid DNA (pRBG4 vector)
The experiment in a line: Two-electrode voltage clamp, acetylcholine-evoked current in Xenopus oocytes. The class given is cell-based. The following applies: for inhibition at 2.5 µM: holding potential −70 mV, read-out: inhibition extent, peak current amplitude.

The next series deals with α4β2 nAChR (Rattus norvegicus, UniProt P09483+P12390). The class given is binding. The following applies: test ligand concentrations up to 1 mM.
On the set-up of series [7]: method as in earlier work. The following applies: cited from earlier work.
For the next series, the system named is GABAAR. To be noted: cited from earlier work.

Like-named read-outs stand apart in the source and are kept apart here.

For the molecule `Cn1cc2c3c1C(=O)C(N/C=C/c1ccc(O)cc1)=CC3=[N+](C)CC2` [MG, Makaluvamine G], the “inhibition of α1 GlyR” value with homopentameric α1 GlyR is listed as “does not inhibit”. Besides, the “inhibition of ACh-evoked currents” value against rat α4β2 nAChR (high micromolar range (25 μM MG, 50 μM acetylcholine)) was “only weak inhibition”. Besides, the “time to recovery of normal current amplitude after washout” value at rat α4β2 nAChR (reversibility of inhibition, data not shown) fell in the range of 15 to 20 min. The concentrations showing cytotoxicity in the series with different types of cells is 1000 to 70000 nM. For the same molecule, the “potency at muscle nAChR relative to human α7 nAChR” value with human α7 nAChR was “at least one order of magnitude more potent”. Also, the IC50 at topoisomerase I was roughly 3 µM. For the same molecule, the “intrinsic Trp fluorescence quenching” value in series [1] was “induces a drop of intrinsic tryptophan fluorescence”. For the same molecule, the “inhibition of GABA-evoked currents” value at α1β3γ2 GABAAR [2] is listed as “inhibits”. Besides, the “effect on WT receptor dose response to acetylcholine” value in [3] is “does not affect”. Besides, the “dose not toxic to mice, molar” value in the series with mice [4] was 629 µmol/kg. In the series with mice [5], the “dose not toxic to mice” value is “up to 210 mg/kg”. On α1β3γ2 GABAAR [6], the “inhibition of fluorescent α-Ctx binding” value is “Only partial inhibition”. The inhibition at 2.5 µM on murine muscle nAChR (2.5 μM MG co-applied with 10 μM acetylcholine) is 27%; at murine muscle nAChR (2.5 μM MG co-applied with 1000 μM acetylcholine) it was 81%. In addition, the “dependence of inhibition on membrane potential (open-channel block)” value on murine muscle nAChR (2.5 μM MG, 30 μM acetylcholine, −30 to −100 mV, current amplitude and net charge) is “No increase in the inhibition”. In addition, on α4β2 nAChR, the “inhibition of [3H]-epibatidine binding” value is “partial”.
Take `COc1cc2c3cc1Oc1cc(ccc1O)C[C@@H]1c4c(cc(OC)c(O)c4Oc4ccc(cc4)C[C@@H]3N(C)CC2)CC[N+]1(C)C` [d-tubocurarine]: the LD50 result in series [7] was “less than 0.7 μmole/kg”. For the same molecule, the “affinity at GABAAR” value in the series on GABAAR is “sub-micromolar”.
For α-cobratoxin, in the series on GABAAR, the “affinity at GABAAR” value was “sub-micromolar”.
